Reference: the NIST ThermoML archive (doi:10.1007/s10765-008-0482-1)
Values joined by “and” are separate entries in the source; they are usually repeats but may differ in a detail not shown here. Equal entries are not always repeated.

Test: xn = mol fraction of the nth substance listed
Settings: Fluid (supercritical or subcritical phases), Parallel plate method

CC [ethane] + O=C=O
Settings | thermal conductivity
295.7 K, Amount density=6960 mol/m3, x2 = 0.5 | 0.0639 W/m/K
295.73 K, Amount density=6710 mol/m3, x2 = 0.26 | 0.0845 W/m/K
295.76 K, Amount density=7450 mol/m3, x2 = 0.25 | 0.0843 W/m/K
295.87 K, Amount density=7450 mol/m3, x2 = 0.25 | 0.0833 W/m/K
295.98 K, Amount density=7450 mol/m3, x2 = 0.25 | 0.0881 W/m/K
296.02 K, Amount density=7530 mol/m3, x2 = 0.5 | 0.0642 W/m/K
296.02 K, Amount density=7730 mol/m3, x2 = 0.5 | 0.0595 W/m/K
296.03 K, Amount density=9120 mol/m3, x2 = 0.74 | 0.0663 W/m/K
296.04 K, Amount density=5650 mol/m3, x2 = 0.5 | 0.047 W/m/K
296.05 K, Amount density=6630 mol/m3, x2 = 0.74 | 0.0507 W/m/K
296.05 K, Amount density=6710 mol/m3, x2 = 0.26 | 0.099 W/m/K and 0.101 W/m/K
296.06 K, Amount density=435 mol/m3, x2 = 0.5 | 0.0196 W/m/K
296.06 K, Amount density=6630 mol/m3, x2 = 0.74 | 0.0506 W/m/K
296.06 K, Amount density=8450 mol/m3, x2 = 0.25 | 0.112 W/m/K
296.07 K, Amount density=2940 mol/m3, x2 = 0.5 | 0.0278 W/m/K
296.07 K, Amount density=6960 mol/m3, x2 = 0.5 | 0.062 W/m/K
296.07 K, Amount density=7450 mol/m3, x2 = 0.25 | 0.0888 W/m/K
296.1 K, Amount density=6710 mol/m3, x2 = 0.26 | 0.0958 W/m/K
296.11 K, Amount density=8450 mol/m3, x2 = 0.25 | 0.11 W/m/K
296.12 K, Amount density=446 mol/m3, x2 = 0.25 | 0.0209 W/m/K
296.14 K, Amount density=2940 mol/m3, x2 = 0.25 | 0.0304 W/m/K
296.14 K, Amount density=10780 mol/m3, x2 = 0.25 | 0.0692 W/m/K
296.18 K, Amount density=5680 mol/m3, x2 = 0.25 | 0.075 W/m/K
296.18 K, Amount density=7490 mol/m3, x2 = 0.25 | 0.0914 W/m/K
296.19 K, Amount density=5680 mol/m3, x2 = 0.25 | 0.0751 W/m/K
296.2 K, Amount density=6830 mol/m3, x2 = 0.25 | 0.0909 W/m/K
296.21 K, Amount density=8450 mol/m3, x2 = 0.25 | 0.107 W/m/K
296.22 K, Amount density=6830 mol/m3, x2 = 0.25 | 0.0855 W/m/K
296.22 K, Amount density=7450 mol/m3, x2 = 0.25 | 0.0888 W/m/K and 0.099 W/m/K
296.24 K, Amount density=2940 mol/m3, x2 = 0.25 | 0.0312 W/m/K
296.24 K, Amount density=6710 mol/m3, x2 = 0.26 | 0.118 W/m/K
296.29 K, Amount density=5680 mol/m3, x2 = 0.25 | 0.0757 W/m/K
296.31 K, Amount density=7490 mol/m3, x2 = 0.25 | 0.102 W/m/K
296.34 K, Amount density=6710 mol/m3, x2 = 0.26 | 0.159 W/m/K
296.34 K, Amount density=7490 mol/m3, x2 = 0.25 | 0.107 W/m/K
296.36 K, Amount density=6710 mol/m3, x2 = 0.26 | 0.166 W/m/K
296.38 K, Amount density=6710 mol/m3, x2 = 0.26 | 0.147 W/m/K and 0.193 W/m/K and 0.172 W/m/K
296.39 K, Amount density=6710 mol/m3, x2 = 0.26 | 0.166 W/m/K
296.4 K, Amount density=6710 mol/m3, x2 = 0.26 | 0.18 W/m/K
296.4 K, Amount density=7450 mol/m3, x2 = 0.25 | 0.124 W/m/K
296.4 K, Amount density=7490 mol/m3, x2 = 0.25 | 0.114 W/m/K
296.41 K, Amount density=7450 mol/m3, x2 = 0.25 | 0.117 W/m/K
296.44 K, Amount density=6710 mol/m3, x2 = 0.26 | 0.167 W/m/K
296.44 K, Amount density=7490 mol/m3, x2 = 0.25 | 0.124 W/m/K and 0.13 W/m/K
296.45 K, Amount density=5680 mol/m3, x2 = 0.25 | 0.0719 W/m/K
296.46 K, Amount density=6830 mol/m3, x2 = 0.25 | 0.102 W/m/K
296.52 K, Amount density=2940 mol/m3, x2 = 0.25 | 0.0308 W/m/K
296.52 K, Amount density=6710 mol/m3, x2 = 0.26 | 0.135 W/m/K
296.52 K, Amount density=7450 mol/m3, x2 = 0.25 | 0.131 W/m/K
296.54 K, Amount density=7490 mol/m3, x2 = 0.25 | 0.166 W/m/K
296.56 K, Amount density=446 mol/m3, x2 = 0.25 | 0.0209 W/m/K
296.58 K, Amount density=7450 mol/m3, x2 = 0.25 | 0.157 W/m/K
296.62 K, Amount density=7450 mol/m3, x2 = 0.25 | 0.184 W/m/K
